Results as given in patent US20240254144A1, “SALT FORM OF PYRROLOTRIAZINE COMPOUND, CRYSTAL FORM THEREOF, AND PREPARATION METHOD THEREFOR” (JUMBO DRUG BANK CO., LTD., priority 2021, published 2024).

Assays:
[1] = Solid stability test (long-term and accelerated lofting); type: physicochemical
From the text: Each sample was separately put into a double-layer LDPE bag with each layer of LDPE bag sealed by a binding buckle. The bag was then put into an aluminum foil bag for heat sealing, and then put into a stability box under corresponding conditions for observation.

[2] = Hygroscopicity by dynamic vapor sorption (DVS); type: physicochemical
From the text: SMS DVS intrinsic dynamic vapor sorption instrument

[3] = target: T1, MNK2 (h) protein kinase (Homo sapiens, UniProt Q9HBH9); test: Inhibitory activity against MNK2 protein kinase (KinaseProfiler, 33P-ATP filter-binding); type: biochemical; conditions: myelin basic protein substrate, 40 min at room temperature
T1 construct: purchased Eurofins Pharma Discovery Services UK Limited (KinaseProfiler service)
Experimental: Purpose of experiment: to test the inhibitory activity of the compound against MNK2 protein kinase Experimental materials: assay buffer: 8 mM 3-(N-morpholino)propanesulfonic acid, 0.2 mM disodium ethylenediaminetetraacetate, 0.01% polyoxyethylene lauryl ether, 5% glycerol, 0.1% β-mercaptoethanol and 1 mg of bovine serum albumin
Experimental operation: Mnk2 protein kinase inhibitory activity assays were performed using the KinaseProfiler™ service from Eurofins Pharma Discovery Services UK Limited. Serially diluted DMSO solutions containing the compound to be tested (3-fold serial dilution, starting from 10 μM), MNK2 (h) protein kinase and 0.33 mg/mL myelin basic protein were added to a freshly prepared buffer (pH=7.0), and then stirred homogeneously. The reaction was initiated by adding a mixture of ^33P-ATP (intensity of radioactivity: 10 μCi/μL) and 10 mM magnesium acetate. After the resulting mixture was reacted at room temperature for 40 min, the reaction was terminated by adding phosphoric acid to dilute to a concentration of 0.5%. […] After drying, the intensity of radioactivity was determined using the Filter-Binding method.
The protein kinase inhibitory activity of the compound was expressed as a percentage of the residual protein kinase activity relative to the blank substrate (DMSO alone). […]

[4] = Crystal form screening / stability in different solvents; type: physicochemical; conditions: stirred at 50° C. for 3 h, XRPD
Experimental: About 50 mg of the compound of formula (II) was weighed out separately and dissolved in different solvents, the mixtures were stirred at 50° C. for 3 h. The reaction liquids were cooled to room temperature, filtered for collection, and dried in vacuum, and the obtained solids were tested by XRPD.

T1 sequence (Q9HBH9 whole entry): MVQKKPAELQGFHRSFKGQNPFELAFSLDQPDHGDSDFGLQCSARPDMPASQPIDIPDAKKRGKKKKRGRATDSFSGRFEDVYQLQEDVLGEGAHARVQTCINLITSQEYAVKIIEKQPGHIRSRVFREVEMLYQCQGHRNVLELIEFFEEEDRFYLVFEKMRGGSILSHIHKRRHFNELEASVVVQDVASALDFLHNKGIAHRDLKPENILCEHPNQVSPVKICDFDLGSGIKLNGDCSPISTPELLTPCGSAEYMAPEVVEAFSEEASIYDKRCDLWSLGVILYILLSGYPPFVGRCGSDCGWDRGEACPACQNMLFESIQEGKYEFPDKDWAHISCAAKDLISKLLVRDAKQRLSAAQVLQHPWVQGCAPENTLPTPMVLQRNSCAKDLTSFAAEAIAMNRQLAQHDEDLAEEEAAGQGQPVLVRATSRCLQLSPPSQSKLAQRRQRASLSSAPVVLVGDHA

For Cc1cc(Nc2ncnn3cc(OCCN4CCC(F)(F)C4)c(C)c23)c(=O)n2c1C(=O)NC21CCCC1, the Crystal form ([1]; 25° C./60% RH, 12 months) was “Crystal form A”, the Crystal form ([1]; 25° C./60% RH, Day 0) was “Crystal form A” and the Crystal form ([1]; 40° C./75% RH, 6 months) was “Crystal form A”. The Crystal form ([1]; 40° C./75% RH, Day 0) was “Crystal form A”, the “hygroscopic weight gain ΔW” value ([2]; 25° C. and 80% RH, DVS) was 1.179% and the “hygroscopicity (in words)” value ([2]; 25° C. and 80% RH, DVS) was “relatively weak hygroscopicity”. The “crystal form before and after the hygroscopic test” value ([2]; DVS 0%~95%~0% RH, 25° C.) was “not changed”.

For Cc1cc(Nc2ncnn3cc(OCCN4CCC(F)(F)C4)c(C)c23)c(=O)n2c1C(=O)NC21CCCC1 [Compound of formula (I)], the IC50 [3] was 17 nM.

With Cc1cc(Nc2ncnn3cc(OCCN4CCC(F)(F)C4)c(C)c23)c(=O)n2c1C(=O)NC21CCCC1 [compound of formula (II)] the Crystal form ([4]; Acetonitrile) was “Crystal form A”, the Crystal form ([4]; Ethanol) was “Crystal form B” and the Crystal form ([4]; Methanol) was “Crystal form A”. The Crystal form ([4]; n-Heptane) was “Crystal form B” and the Crystal form ([4]; tert-Butyl methyl ether) was “Crystal form A”.
